{
  "source": "patent US20230066286A1",
  "about": "“DEUTERATED TRYPTAMINE DERIVATIVES AND METHODS OF USE” (priority 2020, published 2023)",
  "key": {"[1]": {"molecular_target": "T1, 5-HT1A (Homo sapiens, UniProt P08908)", "T1 construct": "expressed in transfected cells; host or cells: CHO-K1 or HEK293", "T1 sequence (P08908 1-422)": "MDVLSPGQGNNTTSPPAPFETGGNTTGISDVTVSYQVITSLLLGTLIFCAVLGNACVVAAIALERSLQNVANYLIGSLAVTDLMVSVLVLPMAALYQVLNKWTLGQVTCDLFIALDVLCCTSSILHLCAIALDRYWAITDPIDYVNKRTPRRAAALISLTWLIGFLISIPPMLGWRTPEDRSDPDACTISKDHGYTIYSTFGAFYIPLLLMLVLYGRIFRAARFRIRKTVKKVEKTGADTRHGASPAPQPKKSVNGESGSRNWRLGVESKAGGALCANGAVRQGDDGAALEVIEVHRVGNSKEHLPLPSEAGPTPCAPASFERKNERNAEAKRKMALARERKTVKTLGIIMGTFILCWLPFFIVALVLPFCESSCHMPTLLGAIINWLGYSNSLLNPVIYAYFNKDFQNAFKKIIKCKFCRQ", "experiment": "Receptor affinity assay, radioligand competition binding", "experimental": "Receptor Affinity Assays: 5-HT1A, 5-HT2(A,B,C) receptor affinities were determined by radioligand competition binding. Membranes from CHO-K1 or HEK293 cells expressing serotonergic receptors were collected and incubated in assay buffer with Kd concentrations of radioligands and tests compounds that compete for receptor binding sites. After equilibration, the reaction was terminated by collecting ligand-receptor-membrane complexes (Microbeta, PerkinElmer), and radioactivity was measured by a scintillation counter (Microbeta2, PerkinElmer). Data were fit to non-linear curves, and Ki values were calculated per the Cheng-Prusoff equation."}, "[2]": {"molecular_target": "T1, 5-HT1A", "experiment": "Receptor function assay, Gi stimulation (reduction in cAMP levels)", "format": "cell-based", "experimental": "Receptor Function Assays: 5-HT1A receptor-mediated Gi stimulation (reduction in cyclic adenosine monophosphate (cAMP) levels) and 5-HT2(A,B,C) receptor-mediated Gq stimulation (phosphoinositide hydrolysis leading to the production of inositol phosphate 1 (IP1))-canonical signaling pathways—were measured as previously described (Canal et al., 2013), for example, with a homogeneous time-resolved fluorescence (HTRF) capable microplate reader (e.g., Mithras LB 940, Berthold) using commercially-available kits employing Fluorescence Resonance Energy Transfer (FRET) technology (e.g., LANCE Ultra cAMP TR-FRET (PerkinElmer) and IP-One HTRF (Cisbio) kits). Briefly, CHO-K1 or HEK293 cells expressing serotonergic receptors were incubated with test compounds in stimulation buffer. After equilibration, the reaction was terminated with the donor and acceptor fluorescent conjugates in lysis buffer, and FRET was measured. Data were fit to non-linear curves to calculate potencies (e.g., EC50) and efficacies (e.g., EMAX), relative to positive controls (e.g., serotonin)."}, "[3]": {"experiment": "PK study in rats, cassette dosing", "format": "in vivo, rat", "conditions": "% change vs. non-deuterated material, 5 mg/kg", "experimental": "(§1) The key PK parameters (presented as a % change vs. non-deuterated materials) are presented in Table 3 to include half-life (T½), area under the curve (AUC), bioavailability (F) and blood-to-plasma ration (BPR). Pharmacokinetics of the deuterated tryptamines was studied in rats. In a typical experiment, run as a cassette dosing, two groups of 5 Wistar female rats (200-250 g) with surgically inserted jugular vein catheter (Charles River, Andover, MA) were fasted for 12 h and then administered 5 mg/kg of the deuterated and 5 mg/kg of the related non-deuterated analog, by oral gavage or via a catheter for each group. At time points 0, 15, 30, 60 min, and 2, 4, 8, and 24 h, the resulting plasma was analyzed for the parent molecule using LC/MS spectroscopy. Two separate groups of 5 animals were used for determining blood-to-plasma ratio (BPR). Each group was sacrificed at time points 15 and 30 min, respectively, and the concentration of the parent drug was determined in the […] and plasma by LC/MS spectroscopy."}, "[4]": {"experiment": "Blood-to-plasma ratio (BPR), parent drug in brain and plasma of rats", "format": "in vivo, rat", "conditions": "% change vs. non-deuterated material", "experimental": "as §1"}},
  "data": [
    {"smiles": "[2H]C([2H])(Cc1c[nH]c2cccc(O)c12)N(C)C", "note": "[PI-α,α-d2]", "values": [
      {"measurement": "Ki", "setting": "[1]", "value": 510, "unit": "nM"},
      {"measurement": "EC50", "setting": "[2]", "value": 200, "unit": "nM"},
      {"measurement": "AUC, deuterium kinetic isotope effect (% change)", "setting": "[3]; oral gavage or via catheter", "value": 75, "unit": "%"},
      {"measurement": "T½, deuterium kinetic isotope effect (% change)", "setting": "[3]; oral gavage or via catheter", "value": 50, "unit": "%"},
      {"measurement": "bioavailability", "setting": "[3]; female, Wistar, rat, plasma, oral, read-out: F (bioavailability), deuterium kinetic isotope effect (% change)", "value": 45, "unit": "%"},
      {"measurement": "BPR, 15 min, deuterium kinetic isotope effect (% change)", "setting": "[4]; rats sacrificed at 15 min", "value": 100, "unit": "%"},
      {"measurement": "BPR, 30 min, deuterium kinetic isotope effect (% change)", "setting": "[4]; rats sacrificed at 30 min", "value": 150, "unit": "%"}
    ]}
  ]
}
